The subject of experiment [1] is Streptococcus pneumoniae. Put plainly: Antibacterial activity against penicillin-, macrolide-susceptible and quinolone-resistant Streptococcus pneumoniae HMC 1074 harboring S81F, E85K mutation in quinolone-resistant determining regions of GyrA gene, S79F mutation in QRDR of ParC gene and I460V mutation in QRDR of ParE gene after 27 passages with gemifloxacin measured after 10 daily antibiotic-free subculturing by multi-step resistance selection technique. It counts as functional.

Experiment [2] concerns Streptococcus pneumoniae. Description: Antibacterial activity against penicillin-, macrolide-susceptible and quinolone-resistant Streptococcus pneumoniae HMC 1074 harboring S81F mutation in quinolone-resistant determining regions of GyrA gene, S79F mutation in QRDR of ParC gene and I460V mutation in QRDR of ParE gene by broth microdilution method. It is filed as functional. In general terms: In broth dilution the organism is exposed to a series of concentrations in liquid medium.

The subject of experiment [3] is Streptococcus pneumoniae. Put plainly: Antibacterial activity against penicillin-resistant and quinolone-susceptible Streptococcus pneumoniae HMC 3583 expressing mefA by broth microdilution method. It counts as functional.
In experiment [4] the test system is Streptococcus pneumoniae. Description: Antibacterial activity against azithromycin-susceptible Streptococcus pneumoniae ATCC 49619 by agar dilution method. It counts as functional. A general note: In agar dilution, organisms are placed on agar that contains the substance at set levels.
The test system of experiment [5] is Streptococcus pneumoniae. Description: Antibacterial activity against quinolone-susceptible Streptococcus pneumoniae ATCC 49619 by agar dilution method. It is filed as functional.
The subject of experiment [6] is Streptococcus pneumoniae. Put plainly: Antibacterial activity against penicillin-resistant and quinolone-susceptible Streptococcus pneumoniae HMC 3583 expressing mefA and harboring S81F mutation in quinolone-resistant determining regions of GyrA gene, D83N mutation in QRDR of ParC gene and I460V mutation in QRDR of ParE gene after 49 passages with DC-159a measured after 10 daily antibiotic-free subculturing by multi-step resistance selection technique. It is filed as functional.

For experiment [7], the system named is Streptococcus pneumoniae. Put plainly: Antibacterial activity against penicillin-resistant and quinolone-susceptible Streptococcus pneumoniae HMC 228 expressing ermB and harboring S81F mutation in quinolone-resistant determining regions of GyrA gene, D83N mutation in QRDR of ParC gene and I460V mutation in QRDR of ParE gene after 28 passages with DC-159a measured after 10 daily antibiotic-free subculturing by multi-step resistance selection technique. It is filed as functional.

In experiment [8] the test system is Streptococcus pneumoniae. Description: Antibacterial activity against Streptococcus pneumoniae HMC 2527 harboring S81Y mutation in quinolone-resistant determining regions of GyrA gene, S79F, K137N mutation in QRDR of ParC gene and I460V mutation in QRDR of ParE gene by agar dilution method. It counts as functional.
Experiment [9] has as its system Streptococcus pneumoniae. Put plainly: Antibacterial activity against macrolide-, quinolone-susceptible and penicillin-intermediate Streptococcus pneumoniae HMC 100 after 42 passages by broth microdilution method. It is filed as functional.
The test system of experiment [10] is Streptococcus pneumoniae. Description: Antibacterial activity against penicillin-resistant and quinolone-susceptible Streptococcus pneumoniae HMC 228 expressing ermB after 50 passages by broth microdilution method. It counts as functional.
Experiment [11] has as its system Streptococcus pneumoniae. Put plainly: Antibacterial activity against penicillin-, macrolide-susceptible and quinolone-resistant Streptococcus pneumoniae HMC 1074 harboring S81F mutation in quinolone-resistant determining regions of GyrA gene, S79F mutation in QRDR of ParC gene and I460V mutation in QRDR of ParE gene after 27 passages by broth microdilution method. It counts as functional.

The subject of experiment [12] is Streptococcus pneumoniae. Put plainly: Antibacterial activity against Streptococcus pneumoniae HMC 1078 harboring S81F mutation in quinolone-resistant determining regions of GyrA gene, S79F mutation in QRDR of ParC gene and I460V mutation in QRDR of ParE gene by agar dilution method. It counts as functional.
For experiment [13], the system named is Streptococcus pneumoniae. Description: Antibacterial activity against penicillin-, macrolide- and quinolone-susceptible Streptococcus pneumoniae HMC 63 after 34 passages by broth microdilution method. It counts as functional.
Experiment [14] concerns Streptococcus pneumoniae. Description: Antibacterial activity against penicillin-resistant and quinolone-susceptible Streptococcus pneumoniae HMC 3583 expressing mefA after 41 passages by broth microdilution method. It counts as functional.
Experiment [15] deals with Streptococcus pneumoniae. Put plainly: Antibacterial activity against Streptococcus pneumoniae HMC 1156 harboring S81F and S79F mutation in quinolone-resistant determining regions of GyrA and ParC genes respectively showing efflux to ciprofloxacin, gemifloxacin by agar dilution method. It counts as functional.
The subject of experiment [16] is Streptococcus pneumoniae. Put plainly: Antibacterial activity against Streptococcus pneumoniae HMC 1071 harboring S81F mutation in quinolone-resistant determining regions of GyrA gene and S79F, K137N mutation in QRDR of ParC gene by agar dilution method. It counts as functional.
The test system of experiment [17] is Streptococcus sp. Description: Antibacterial activity against levofloxacin-intermediate -resistant Streptococcus sp. by agar dilution method. It counts as functional.
Experiment [18] relates to Streptococcus pneumoniae. Description: Antibacterial activity against penicillin-resistant and quinolone-susceptible Streptococcus pneumoniae HMC 3583 expressing mefA after 49 passages by broth microdilution method. It counts as functional.
For experiment [19], the system named is Streptococcus sp. Description: Antibacterial activity against Streptococcus sp. by agar dilution method. It is filed as functional.
In experiment [20] the test system is Streptococcus pneumoniae. Description: Antibacterial activity against penicillin-resistant and quinolone-susceptible Streptococcus pneumoniae HMC 228 expressing ermB after 38 passages by broth microdilution method. It counts as functional.
Experiment [21] concerns Streptococcus pneumoniae. Description: Antibacterial activity against penicillin-resistant and quinolone-susceptible Streptococcus pneumoniae HMC 228 expressing ermB after 36 passages by broth microdilution method. It counts as functional.
Experiment [22] relates to Streptococcus pneumoniae. Put plainly: Antibacterial activity against macrolide-, quinolone-susceptible and penicillin-intermediate Streptococcus pneumoniae HMC 99 after 41 passages by broth microdilution method.
For experiment [23], the system named is Streptococcus pneumoniae. Put plainly: Antibacterial activity against macrolide-, quinolone-susceptible and penicillin-intermediate Streptococcus pneumoniae HMC 100 after 22 passages by broth microdilution method. It is filed as functional.
In experiment [24] the test system is Streptococcus pneumoniae. Description: Antibacterial activity against penicillin-resistant and quinolone-susceptible Streptococcus pneumoniae HMC 3583 expressing mefA after 46 passages by broth microdilution method. It is filed as functional.
In experiment [25] the test system is Streptococcus pneumoniae. Put plainly: Antibacterial activity against penicillin-resistant and quinolone-susceptible Streptococcus pneumoniae HMC 228 expressing ermB after 28 passages by broth microdilution method. It is filed as functional.

≈ marks a conversion by molar mass, not a printed value.

The MIC is the lowest concentration found to suppress growth. As a reminder, the MIC50 is the lowest concentration that inhibits either 50% of growth or 50% of the strains tested, depending on the study. In general, MIC90 refers to an inhibitory concentration at the 90% level, which refers to growth in some studies and to a panel of isolates in others. Low values mean higher susceptibility, high ones lower susceptibility. For the compound `CC[C@H]1OC(=O)[C@H](C)[C@@H](O[C@H]2C[C@@](C)(OC)[C@@H](O)[C@H](C)O2)[C@H](C)[C@@H](O[C@@H]2O[C@H](C)C[C@H](N(C)C)[C@H]2O)[C@](C)(O)C[C@@H](C)CN(C)[C@H](C)[C@@H](O)[C@]1(C)O` [AZITHROMYCIN], the MIC in the experiment with Streptococcus pneumoniae [1] was 0.016 µg/mL (≈ 0.0214 µM); with Streptococcus pneumoniae [2] it was 0.03 µg/mL (≈ 0.0401 µM); against Streptococcus pneumoniae [3], 2 µg/mL (≈ 2.67 µM); against Streptococcus pneumoniae [6], 0.25 µg/mL (≈ 0.334 µM); in the experiment on Streptococcus pneumoniae [7], above 64 µg/mL. In addition, the results for the MIC50 with Streptococcus pneumoniae [4] and with Streptococcus pneumoniae [5] were 0.12 µg/mL (≈ 0.16 µM) and 1 µg/mL (≈ 1.34 µM), respectively. Besides, the MIC90 in the experiment on Streptococcus pneumoniae [4] is 0.12 µg/mL (≈ 0.16 µM); against Streptococcus pneumoniae [5], above 64 µg/mL.
As to `CO/N=C1\CN(c2nc3c(cc2F)c(=O)c(C(=O)O)cn3C2CC2)CC1CN` (stereo not given) [GEMIFLOXACIN], the MIC against Streptococcus pneumoniae [8] was found to be 0.25 µg/mL (≈ 0.642 µM); in the experiment with Streptococcus pneumoniae [9], 1 µg/mL (≈ 2.57 µM); in the experiment on Streptococcus pneumoniae [1] it was 2 µg/mL (≈ 5.14 µM); in the experiment with Streptococcus pneumoniae [10] it was 0.25 µg/mL (≈ 0.642 µM); in the experiment with Streptococcus pneumoniae [11] it was 4 µg/mL (≈ 10.3 µM); against Streptococcus pneumoniae [2] it was 0.25 µg/mL (≈ 0.642 µM). The MIC against Streptococcus pneumoniae [12] came out at 0.5 µg/mL (≈ 1.28 µM); with Streptococcus pneumoniae [13] it was 0.5 µg/mL (≈ 1.28 µM); with Streptococcus pneumoniae [3], 0.03 µg/mL (≈ 0.077 µM); against Streptococcus pneumoniae [14] it was 0.25 µg/mL (≈ 0.642 µM); against Streptococcus pneumoniae [15] it was 0.1 µg/mL (≈ 0.257 µM); in the experiment on Streptococcus pneumoniae [16] it was 0.5 µg/mL (≈ 1.28 µM). Besides, the MIC with Streptococcus pneumoniae [6] was found to be 4 µg/mL (≈ 10.3 µM); against Streptococcus pneumoniae [7] it was 1 µg/mL (≈ 2.57 µM). Further, the MIC50 in the experiment with Streptococcus pneumoniae [4] and in the experiment on Streptococcus pneumoniae [5] was 0.03 µg/mL (≈ 0.077 µM) each time. The figures for the MIC90 in the experiment with Streptococcus pneumoniae [4] and against Streptococcus pneumoniae [5] were 0.25 µg/mL (≈ 0.642 µM) and 0.06 µg/mL (≈ 0.154 µM), respectively.
For the compound `COc1c(N2CC3(CC3)[C@](C)(N)C2)c(F)cc2c(=O)c(C(=O)O)cn([C@@H]3C[C@@H]3F)c12.O`, the MIC in the experiment on Streptococcus pneumoniae [8] was found to be 1 µg/mL; against Streptococcus pneumoniae [1], 4 µg/mL; in the experiment with Streptococcus pneumoniae [10] it was 1 µg/mL; in the experiment on Streptococcus pneumoniae [18], 1 µg/mL; against Streptococcus pneumoniae [2], 1 µg/mL; in the experiment on Streptococcus pneumoniae [12] it was 1 µg/mL. Besides, the minimum inhibitory concentration (MIC) against Streptococcus pneumoniae [20] amounted to 1 µg/mL; with Streptococcus pneumoniae [3], 0.12 µg/mL; against Streptococcus pneumoniae [15], 1 µg/mL; against Streptococcus pneumoniae [16] it was 1 µg/mL; in the experiment on Streptococcus pneumoniae [6] it was 1 µg/mL; against Streptococcus pneumoniae [7], 1 µg/mL. Moreover, the MIC90 stood at 1 µg/mL in the experiment on Streptococcus sp. [17], 0.125 µg/mL against Streptococcus sp. [19], 0.5 µg/mL against Streptococcus pneumoniae [4] and 0.12 µg/mL with Streptococcus pneumoniae [5]. Moreover, the MIC50 against Streptococcus pneumoniae [4] and with Streptococcus pneumoniae [5] was 0.12 µg/mL throughout.
Take `COc1c(N2C[C@@H]3CCCN[C@@H]3C2)c(F)cc2c(=O)c(C(=O)O)cn(C3CC3)c12` [MOXIFLOXACIN]: the MIC with Streptococcus pneumoniae [8] turned out to be 4 µg/mL (≈ 9.96 µM); against Streptococcus pneumoniae [1] it was 16 µg/mL (≈ 39.9 µM); against Streptococcus pneumoniae [21], 2 µg/mL (≈ 4.98 µM); in the experiment on Streptococcus pneumoniae [12], 4 µg/mL (≈ 9.96 µM); in the experiment on Streptococcus pneumoniae [22] it was 4 µg/mL (≈ 9.96 µM); with Streptococcus pneumoniae [15], 4 µg/mL (≈ 9.96 µM). In addition, the MIC with Streptococcus pneumoniae [16] amounted to 4 µg/mL (≈ 9.96 µM); against Streptococcus pneumoniae [6], 2 µg/mL (≈ 4.98 µM); in the experiment on Streptococcus pneumoniae [7], 2 µg/mL (≈ 4.98 µM); with Streptococcus pneumoniae [23], 2 µg/mL (≈ 4.98 µM).
With `COc1c(N2CCNC(C)C2)c(F)cc2c(=O)c(C(=O)O)cn(C3CC3)c12` (stereo not given) [GATIFLOXACIN], the MIC in the experiment with Streptococcus pneumoniae [24] worked out at 4 µg/mL (≈ 10.7 µM); against Streptococcus pneumoniae [25], 4 µg/mL (≈ 10.7 µM); against Streptococcus pneumoniae [8], 16 µg/mL (≈ 42.6 µM); against Streptococcus pneumoniae [1] it was 16 µg/mL (≈ 42.6 µM); against Streptococcus pneumoniae [2], 4 µg/mL (≈ 10.7 µM); in the experiment on Streptococcus pneumoniae [12], 8 µg/mL (≈ 21.3 µM). Also, the MIC in the experiment on Streptococcus pneumoniae [3] worked out at 0.25 µg/mL (≈ 0.666 µM); with Streptococcus pneumoniae [15], 8 µg/mL (≈ 21.3 µM); with Streptococcus pneumoniae [16] it was 8 µg/mL (≈ 21.3 µM); against Streptococcus pneumoniae [6], 4 µg/mL (≈ 10.7 µM); in the experiment with Streptococcus pneumoniae [7] it was 4 µg/mL (≈ 10.7 µM). Also, the MIC50 against Streptococcus pneumoniae [4] and with Streptococcus pneumoniae [5] was 0.5 µg/mL (≈ 1.33 µM) throughout. The values for the MIC90 in the experiment on Streptococcus pneumoniae [4] and against Streptococcus pneumoniae [5] were 4 µg/mL (≈ 10.7 µM) and 0.5 µg/mL (≈ 1.33 µM), respectively.

Source of the values: ChEMBL document CHEMBL1151449, “In vitro activity of DC-159a, a new broad-spectrum fluoroquinolone, compared with that of other agents against drug-susceptible and -resistant pneumococci” (2008).
